{"source": "patent US9994548B2", "about": "“Phenyl-substituted nicotinic ligands, and methods of use thereof” (Georgetown University, priority 2011, dated 2018)", "key": {"α3β4 nAChR": {"biological_target": "T1, α3β4 nAChR (Rattus norvegicus, UniProt P04757+P12392)", "T1 construct": "expressed in transfected cells; host or cells: HEK 293 (KXα3β4R2)", "experiment": "[3H]-epibatidine radioligand competition binding assay", "settings": "competition against [3H]-epibatidine, stably transfected cell membranes; read-out: Ki α3β4", "experimental": "(§1) Stably transfected cell lines, tissue culture conditions, membrane preparation procedures and binding assays were described previously. Briefly, cultured cells at >80% confluence were removed from their flasks (80 cm^2) with a disposable cell scraper and placed in 10 mL of 50 mM Tris.HCl buffer (pH 7.4, 4° C.). The cell suspension was centrifuged at 10,000×g for 5 min and the pellet was collected. The cell pellet was then homogenized in 10 mL buffer with a polytron homogenizer and centrifuged at 36,000 g for 10 min at 4° C. The membrane pellet was resuspended in fresh buffer, and aliquots of the membrane preparation were used for binding assays. The concentration of [^3H]-epibatidine used was ˜500 pM for competition binding assays. […] Bound and free ligands were separated by vacuum filtration through Whatman GF/C filters treated with 0.5% polyethylenimine. The filter-retained radioactivity was measured by liquid scintillation counting. Specific binding was defined as the difference between total binding and nonspecific binding. Data from competition binding assays were analyzed using Prism 5 (GraphPad Software, San Diego, Calif.).\n(§2) The in vitro binding affinities of the new ligands were measured for defined receptor subtypes (α2β2, α2β4, α3β2, α3β4, α4β2, α4β4, α6β2, α6β4, and α7) expressed in stably transfected cell lines. [^3H]Epibatidine ([^3H]EB) binds to the agonist recognition site of all of the defined receptor subtypes with high affinities. Rat forebrain homogenates were included to allow comparison between the heterologous and native α4β2 and α7 nAChRs. See FIG. 18 for binding affinity values (Ki) of the ligands at the three major nAChR subtypes (α3β4, […], and α7).\n(§3) The binding affinities of all compounds synthesized for the receptor subtypes were examined in binding competition studies against [^3H]-epibatidine."}, "α4β2 nAChR": {"biological_target": "T2, α4β2 nAChR (Rattus norvegicus, UniProt P09483+P12390)", "T2 construct": "expressed in transfected cells", "experiment": "[3H]-epibatidine radioligand competition binding assay", "settings": "competition against [3H]-epibatidine, stably transfected cell membranes; read-out: Ki α4β2", "experimental": "as §1, §2, §3"}, "α7 nAChR": {"biological_target": "T3, α7 nAChR (Rattus norvegicus, UniProt Q05941)", "T3 construct": "expressed in transfected cells", "experiment": "[3H]-epibatidine radioligand competition binding assay", "settings": "competition against [3H]-epibatidine", "experimental": "as §1, §2, §3"}, "human α4β2 nAChRs": {"biological_target": "T4, human α4β2 nAChRs (Homo sapiens, UniProt P17787+P43681)", "T4 construct": "expressed in transfected cells", "experiment": "86Rb+ efflux assay in stably transfected cells", "assay_type": "cell-based", "experimental": "(§4) The cell line expressing rat α3β4 nAChRs, KXα3β4R2, was established previously by stably transfecting HEK 293 cells with combinations of rat nAChR α3 and β4 subunit genes. The cell line expressing human α4β2 nAChRs, YXα4β2H1, were established recently (Tuan et al., 2012, manuscript in preparation). These cell lines were maintained in minimum essential medium (MEM) supplemented with 10% fetal bovine serum, 100 units/mL penicillin G, […] streptomycin and selective antibiotics at 37° C. with 5% CO2 in a humidified incubator. Tissue culture medium and antibiotics were obtained from Invitrogen Corporation (Carlsbad, Calif.), unless otherwise stated. Fetal bovine serum and horse serum were provided by Gemini Bio-Products (Woodland, Calif.).\n(§5) Functional properties of compounds at nAChRs expressed in the transfected cells were measured using ^86Rb^+ efflux assays as described previously. In brief, cells were plated into 24-well plates coated with poly-D-lysine. The plated cells were grown at 37° C. for 18 to 24 hour to reach 85-95% confluence. The cells were then incubated in growth medium (0.5 mL/well) containing ^86Rb^+ (2 μCi/mL) for 4 hour at 37° C. The loading mixture was then aspirated, and the cells were washed four times with 1 mL buffer (15 mM HEPES, 140 mM NaCl, 2 mM KCl, 1 mM MgSO4, 1.8 mM CaCl2, 11 mM Glucose, pH 7.4). One mL of buffer with or without compounds to be tested was then added to each well. After incubation for 2 min, the assay buffer was collected for measurements of ^86Rb^+ released from the cells. Cells were then lysed by adding 1 mL of 100 mM NaOH to each well, and the lysate was collected for determination of the amount of ^86Rb^+ that was in the cells at the end of the efflux assay. Radioactivity of assay samples and lysates was measured by liquid scintillation counting. Total loading (cpm) was calculated as the sum of the assay sample and the lysate of each well. The amount of ^86Rb^+ efflux was expressed as a percentage of ^86Rb^+ loaded. […] For obtaining EC50 and Emax values, stimulation curves were constructed in which 8 different concentrations of a ligand were included in the assay. […] EC50, Emax and IC50(10′) values were determined by nonlinear least-squares regression analyses (GraphPad, San Diego, Calif.).\n(§6) Functional properties of the new ligands were determined by ^86Rb^1 efflux assays in cells expressing α3β4 and α4β2 nAChR subtypes. Functional activity of each new ligand was measured in terms of its agonism, antagonism and desensitization ability.\n(§7) Agonist activity of each of the ligands was tested at eight concentrations. […] The full concentration-effect curves generated potency (EC50) and efficacy (Emax) of each ligand.\n(§8) Though the ^86Rb^+ efflux assays were the main methodology used to determine functional properties, whole-cell current measurements were also used to verify the key experiments."}, "rat α3β4 nAChRs": {"biological_target": "T5, rat α3β4 nAChRs (Rattus norvegicus, UniProt P04757+P12392)", "T5 construct": "expressed in transfected cells; host or cells: HEK 293 (KXα3β4R2)", "experiment": "86Rb+ efflux assay in stably transfected cells", "assay_type": "cell-based", "settings": "86Rb+ efflux, rat α3β4", "experimental": "as §4, §5, §6, §7, §8"}}, "note": "Entries after “also recorded” stand apart in the source; their conditions may differ."}
{"compound": "C(#Cc1cncc(OC[C@@H]2CCN2)c1)c1ccccc1", "note": "[VMY-2-95, (S)-3-(azetidin-2-ylmethoxy)-5-(phenylethynyl)pyridine]", "values": [{"measurement": "Ki", "setting": "α3β4 nAChR", "result": 650, "unit": "nM"}, {"measurement": "Ki", "setting": "α4β2 nAChR", "result": 0.049, "unit": "nM"}, {"measurement": "Ki", "setting": "α7 nAChR", "result": 580, "unit": "nM"}, {"measurement": "EC50", "setting": "human α4β2 nAChRs", "result": 8.6, "unit": "nM"}, {"measurement": "agonist activity at α4β2 receptors", "setting": "human α4β2 nAChRs; 86Rb+ efflux, human α4β2", "result": "clear agonist activity"}, {"measurement": "IC50", "setting": "human α4β2 nAChRs; 10 min pre-treatment before 100 μM (−)-nicotine, read-out: IC50(10′) α4β2 (desensitization potency)", "result": 16, "unit": "nM"}, {"measurement": "inhibition of nicotine activation of α4β2 receptors", "setting": "human α4β2 nAChRs; preincubated with the cells for 10 min", "result": "inhibited"}, {"measurement": "agonist activity at α3β4 nAChRs", "setting": "rat α3β4 nAChRs", "result": "did not show any detectable agonist activity; also recorded: does not show agonist activity"}]}
